Usually IC50 stands for the concentration needed to halve the response being measured.

Bounds are passed on as bounds.

The target in test [1] is T1, pseudo-kinase domain (JH2, amino-acids 536-812 with 3 surface mutations W659A, W777A, F794H) of human V617F mutant JAK2 (Homo sapiens, UniProt O60674, F794H/V617F/W659A/W777A).
T1 construct: pseudo-kinase domain (JH2, amino-acids 536-812 with 3 surface mutations W659A, W777A, F794H); His (C); Avi (biotinylated) (C); purchased BPS Bioscience 79498; host or cells: baculovirus expression system
T1 sequence (O60674 536-812 V617F/W659A/W777A/F794H): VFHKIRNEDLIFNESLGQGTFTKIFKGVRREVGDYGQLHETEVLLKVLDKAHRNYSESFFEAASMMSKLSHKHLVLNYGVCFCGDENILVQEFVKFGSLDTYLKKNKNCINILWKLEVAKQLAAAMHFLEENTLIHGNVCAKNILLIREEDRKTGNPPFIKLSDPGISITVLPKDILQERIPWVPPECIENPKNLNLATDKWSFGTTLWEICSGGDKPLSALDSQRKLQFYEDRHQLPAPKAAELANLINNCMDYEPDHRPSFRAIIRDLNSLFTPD
In words: JAK2 LanthaScreen JH2-V617F binding assay. As to conditions: 50 nM tracer, 1 hour at 25° C., read-out: JH2 BIND V617F IC50. As for the experimental part: Example C. JAK2 LanthaScreen JH2-V617F Binding Assay
(§1) JAK2 JH2-V617F binding assay utilizes pseudo-kinase domain (JH2, amino-acids 536-812 with 3 surface mutations W659A, W777A, F794H) of human V617F mutant JAK2 expressed as C-terminal His-Avi-tagged, biotinylated protein in a baculovirus expression system (BPS Bioscience, Catalog #79498). The assay was conducted in black 384-well polystyrene plates in a final reaction volume of 20 μL. JAK2 JH2-V617F (0.26 nM) was incubated with compounds (100 nL serially diluted in DMSO) in the presence of 50 nM Fluorescent JAK2-JH2 Tracer (MedChem Express Catalog #HY-102055) and 0.25 nM Streptavidin-Tb cryptate (Cisbio Part #610SATLB) in assay buffer (50 mM Tris, pH=7.5, 10 mM MgCl2, 0.01% Brij-35, 0.1% BSA, 1 mM EGTA, 5% Glycerol and 5 mM DTT). Non-specific binding was accessed in the presence of 2 mM ATP. After incubation for 1 hour at 25° C., LanthaScreen signals were read on a PHERAstar FS plate reader (BMG LABTECH). Data was analyzed with IDBS XLfit and GraphPad Prism 5.0 software using a four parameter dose response curve to determine IC50 for each compound.

Test [2] deals with T2, catalytic domain (JH1, amino acids 826-1132) of human JAK2 (Homo sapiens, UniProt O60674).
T2 construct: catalytic domain (JH1, amino acids 826-1132) of human JAK2; FLAG (N); purchased Carna Biosciences 08-445-20N; host or cells: baculovirus expression system
T2 sequence (O60674 826-1132): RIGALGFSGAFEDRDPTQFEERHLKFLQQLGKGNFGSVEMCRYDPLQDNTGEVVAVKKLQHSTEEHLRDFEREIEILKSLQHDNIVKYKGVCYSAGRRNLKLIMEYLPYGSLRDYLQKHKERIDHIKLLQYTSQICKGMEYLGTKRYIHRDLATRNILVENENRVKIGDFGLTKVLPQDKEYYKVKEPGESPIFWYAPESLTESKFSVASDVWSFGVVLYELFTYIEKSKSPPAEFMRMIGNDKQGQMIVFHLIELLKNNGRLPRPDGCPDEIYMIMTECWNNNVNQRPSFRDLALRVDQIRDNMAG
In words: JAK2 LanthaScreen JH1 binding assay. The conditions noted are these: 50 nM tracer, 2 hours at 25° C., read-out: JH1 BIND IC50. As for the experimental part: Example A. JAK2 LanthaScreen […] Binding Assay
JAK2 JH1 binding assay utilizes catalytic domain (JH1, amino acids 826-1132) of human JAK2 expressed as N-terminal FLAG-tagged, biotinylated protein in a baculovirus expression system (Carna Biosciences, Product #08-445-20N). The assay was conducted in black 384-well polystyrene plates in a final reaction volume of 20 μL. JAK2 JH1 (1.5 nM) was incubated with compounds (100 nL serially diluted in DMSO) in the presence of 50 nM fluorescent JAK2-JH1 tracer and 0.5 nM Streptavidin-Tb cryptate (Cisbio Part #610SATLB) in assay buffer (50 mM Tris, pH=7.5, 10 mM MgCl2, 0.01% Brij-35, 0.1% BSA, 1 mM EGTA, 5% Glycerol and 5 mM DTT). Non-specific binding was accessed in the presence of 2 mM ATP. After incubation for 2 hours at 25° C., LanthaScreen signals were read on a PHERAstar FS plate reader (BMG LABTECH). Data was analyzed with IDBS XLfit and GraphPad Prism 5.0 software using a four parameter dose response curve to determine IC50 for each compound.
For orientation: In TR-FRET formats the signal depends on donor and acceptor labels being close together.

The target in test [3] is T3, pseudo-kinase domain (JH2, amino-acids 536-812 with 3 surface mutations W659A, W777A, F794H) of human Wild Type JAK2 (Homo sapiens, UniProt O60674, F794H/W659A/W777A).
T3 construct: pseudo-kinase domain (JH2, amino-acids 536-812 with 3 surface mutations W659A, W777A, F794H); His (C); Avi (biotinylated) (C); purchased BPS Bioscience 79463; host or cells: baculovirus expression system
T3 sequence (O60674 536-812 W659A/W777A/F794H): as the sequence (O60674 536-812 V617F/W659A/W777A/F794H) above, with F82V counted along it
In words: JAK2 LanthaScreen JH2-WT binding assay. The conditions noted are these: 50 nM tracer, 1 hour at 25° C., read-out: JH2 BIND WT IC50. The protocol:
Example B. JAK2 LanthaScreen JH2-WT Binding Assay
as §1, with “JH2-WT” for “JH2-V617F”, “Wild Type” for “V617F mutant”, “#79463).” for “#79498).”, “JH2-WT (0.145” for “JH2-V617F (0.26”

As for `CC(C)n1ncc2cc(-c3c(-c4cnn(C)c4)[nH]c4ncc5c(c34)N(C3CCC4(CC3)CN(C(=O)NCC(F)F)C4)C(=O)NC5)ccc21` [Example 19, N-(2,2-Difluoroethyl)-7-(9-(1-isopropyl-1H-indazol-5-yl)-8-(1-methyl-1H-pyrazol-4-yl)-2-oxo-2,3,4,7-tetrahydro-1H-pyrrolo[3′,2′:5,6]pyrido[4,3-d]pyrimidin-1-yl)-2-azaspiro[3.5] nonane-2-carboxamide], the IC50 in test [1] fell in the range of 10 to 100 nM; in test [2], 100 to 500 nM; in test [3], 10 to 100 nM.

Turning to `COC(=O)N[C@]1(C)CC[C@H](N2C(=O)NCc3cnc4[nH]c(-c5cnn(C)c5)c(-c5ccc6c(cnn6C(C)C)c5)c4c32)CC1` [Example 13, Methyl ((1s,4s)-4-(9-(1-isopropyl-1H-indazol-5-yl)-8-(1-methyl-1H-pyrazol-4-yl)-2-oxo-2,3,4,7-tetrahydro-1H-pyrrolo[3′,2′:5,6]pyrido[4,3-d]pyrimidin-1-yl)-1-methylcyclohexyl)carbamate], the values for the IC50 in test [1], in test [2] and in test [3] were 10 to 100 nM, more than 1000 nM and 10 to 100 nM, respectively.

As for `CC(C)n1ncc2cc(-c3c(-c4cnn(C)c4)[nH]c4ncc5c(c34)N(C3CCN(S(C)(=O)=O)CC3)C(=O)NC5)ccc21` [Example 16, 9-(1-Isopropyl-1H-indazol-5-yl)-8-(1-methyl-1H-pyrazol-4-yl)-1-(1-(methylsulfonyl)piperidin-4-yl)-1,3,4,7-tetrahydro-2H-pyrrolo [3′,2′:5,6]pyrido[4,3-d]pyrimidin-2-one], the IC50 in test [1] is 10 to 100 nM; in test [2], more than 1000 nM; in test [3], 10 to 100 nM.

Consider `COC(=O)N1CC2(CCC(N3C(=O)NCc4cnc5[nH]c(-c6cnn(C)c6)c(-c6ccc7c(cnn7C(C)C)c6)c5c43)CC2)C1` [Example 18, Methyl 7-(9-(1-isopropyl-1H-indazol-5-yl)-8-(1-methyl-1H-pyrazol-4-yl)-2-oxo-2,3,4,7-tetrahydro-1H-pyrrolo[3′,2′:5,6]pyrido[4,3-d]pyrimidin-1-yl)-2-azaspiro[3.5] nonane-2-carboxylate], for which the concentration for half-maximal inhibition (IC50) in test [1] lay within 10 to 100 nM; in test [2] it was 100 to 500 nM; in test [3] it was 10 to 100 nM.

For the compound `COC(=O)N1CCC(N2C(=O)NCc3cnc4[nH]c(-c5cnn(C)c5)c(-c5ccc6c(cnn6C(C)C)c5)c4c32)CC1` [Example 14, Methyl 4-(9-(1-isopropyl-1H-indazol-5-yl)-8-(1-methyl-1H-pyrazol-4-yl)-2-oxo-2,3,4,7-tetrahydro-1H-pyrrolo[3′,2′:5,6]pyrido[4,3-d]pyrimidin-1-yl)piperidine-1-carboxylate], the IC50 is 10 to 100 nM in test [1], more than 1000 nM in test [2] and 10 to 100 nM in test [3].

Regarding `COC(=O)N[C@@H]1CC[C@@H](N2C(=O)NCc3cnc4[nH]c(-c5cnn(C)c5)c(-c5ccc6c(cnn6CCF)c5)c4c32)C1` [Example 25, Methyl ((1R,3R)-3-(9-(1-(2-fluoroethyl)-1H-indazol-5-yl)-8-(1-methyl-1H-pyrazol-4-yl)-2-oxo-2,3,4,7-tetrahydro-1H-pyrrolo[3′,2′:5,6]pyrido [4,3-d]pyrimidin-1-yl)cyclopentyl) carbamate], the IC50 is 10 to 100 nM in test [1], 100 to 500 nM in test [2] and not above 10 nM in test [3].

For `CC(C)n1ncc2cc(-c3c(-c4cnn(C)c4)[nH]c4ncc5c(c34)N([C@H]3CC[C@@H]3NS(C)(=O)=O)C(=O)NC5)ccc21` (racemic) [Example 7, N-(trans-2-(9-(1-Isopropyl-1H-indazol-5-yl)-8-(1-methyl-1H-pyrazol-4-yl)-2-oxo-2,3,4,7-tetrahydro-1H-pyrrolo[3′,2′:5,6]pyrido[4,3-d]pyrimidin-1-yl)cyclobutyl) methan esulfonamide], the IC50 in test [1] is 10 to 100 nM; in test [2], more than 1000 nM; in test [3], 10 to 100 nM.

For the compound `COC(=O)N[C@@H]1CC[C@@H](N2C(=O)NCc3cnc4[nH]c(-c5cnn(C)c5)c(-c5ccc6c(cnn6C(C)C)c5)c4c32)C1` [Example 30, Methyl ((1R,3R)-3-(9-(1-isopropyl-1H-indazol-5-yl)-8-(1-methyl-1H-pyrazol-4-yl)-2-oxo-2,3,4,7-tetrahydro-1H-pyrrolo[3′,2′:5,6]pyrido[4,3-d]pyrimidin-1-yl)cyclopentyl) carbamate], the IC50 is not above 10 nM in test [1], more than 1000 nM in test [2] and not above 10 nM in test [3].

With `CC(=O)N[C@H]1C[C@H](N2C(=O)NCc3cnc4[nH]c(-c5cnn(C)c5)c(-c5ccc6c(cnn6C(C)C)c5)c4c32)C1` [Example 2, N-((1r,3r)-3-(9-(1-Isopropyl-1H-indazol-5-yl)-8-(1-methyl-1H-pyrazol-4-yl)-2-oxo-2,3,4,7-tetrahydro-1H-pyrrolo[3′,2′:5,6]pyrido[4,3-d]pyrimidin-1-yl)cyclobutyl) acetamide], the IC50 is 10 to 100 nM in test [1], more than 1000 nM in test [2] and 10 to 100 nM in test [3].

Regarding `CC(=O)N[C@H]1C[C@@H](N2C(=O)NCc3cnc4[nH]c(-c5cnn(C)c5)c(-c5ccc6c(cnn6C(C)C)c5)c4c32)C1` [Example 5, N-((1s,3s)-3-(9-(1-Isopropyl-1H-indazol-5-yl)-8-(1-methyl-1H-pyrazol-4-yl)-2-oxo-2,3,4,7-tetrahydro-1H-pyrrolo[3′,2′:5,6]pyrido[4,3-d]pyrimidin-1-yl)cyclobutyl) acetamide], the IC50 is 10 to 100 nM in test [1], 500 to 1000 nM in test [2] and 10 to 100 nM in test [3].

Consider `CC(C)n1ncc2cc(-c3c(-c4cnn(C)c4)[nH]c4ncc5c(c34)N([C@@H]3CC[C@@H](NC(=O)C4CC4)C3)C(=O)NC5)ccc21` [Example 11, N-((1R,3R)-3-(9-(1-Isopropyl-1H-indazol-5-yl)-8-(1-methyl-1H-pyrazol-4-yl)-2-oxo-2,3,4,7-tetrahydro-1H-pyrrolo[3′,2′:5,6]pyrido[4,3-d]pyrimidin-1-yl)cyclopentyl) cyclopropanecarboxamide], for which the IC50 in test [1] is 10 to 100 nM; in test [2], more than 1000 nM; in test [3] it was 10 to 100 nM.

In the case of `COC(=O)N[C@H]1C[C@@H](N2C(=O)NCc3cnc4[nH]c(-c5cnn(C)c5)c(-c5ccc6c(cnn6C(C)C)c5)c4c32)C1` [Example 4, Methyl ((1s,3s)-3-(9-(1-isopropyl-1H-indazol-5-yl)-8-(1-methyl-1H-pyrazol-4-yl)-2-oxo-2,3,4,7-tetrahydro-1H-pyrrolo[3′,2′:5,6]pyrido[4,3-d]pyrimidin-1-yl)cyclobutyl) carbamate], the concentration for half-maximal inhibition (IC50) is 10 to 100 nM in test [1], more than 1000 nM in test [2] and 10 to 100 nM in test [3].

The record behind these values is patent publication US20240300948A1, “Heterocyclic Compounds As Kinase Inhibitors” (Incyte Corporation, priority 2023, published 2024).
